We go through 31 compounds from US20120190620A1, “METHODS TO IDENTIFY TARGETS AND MOLECULES REGULATING PURINOSOMES AND THEIR USES” (priority 2010, published 2012).

Holding throughout (type): cell-based, human
In assay [1] the test system is HeLa cells. The assay is described as follows: Purinosome dynamics DMR screen, sequential order molecule, DMAT, TBB. The note with it: for modulation of the DMAT DMR signal / modulation of the TBB DMR signal: GPCR/RTK agonist library, pretreated about one hour, order agonist, DMAT (20 micromolar), TBB (25 micromolar), FIG. 3; for modulation of the DMAT signal / modulation of the TBB signal: adrenergic receptor ligand library, order ligand, TBB, FIG. 5, DMAT. The text has this:
A library of agonists for various different GPCRs were used to individually pretreat a confluent layer of Hela cells for about one hour, before sequential stimulation with DMAT and TBB, respectively. The responses were monitored using Epic® system.
A library of molecules targeting endogenous alpha2A and beta2 adrenergic receptors were used to individually pretreat a confluent layer of Hela cells for about one hour, before sequential stimulation with DMAT and TBB, respectively. The responses were monitored using Epic® system.
(§1) Epic® wavelength interrogation system (Corning Inc., Corning, N.Y.) was used for whole cell sensing. This system consists of a temperature-control unit, an optical detection unit, and an on-board liquid handling unit with robotics. The detection unit is centered on integrated fiber optics, and enables kinetic measures of cellular responses with a time interval of ˜15 sec. The compound solutions were introduced by using the on-board liquid handling unit (i.e., pippetting).
(§2) For biosensor cellular assays, compound solutions were made by diluting the stored concentrated solutions with the HBSS (1× Hanks balanced salt solution, plus 20 mM Hepes, pH 7.1), and transferred into a 384 well polypropylene compound storage plate to prepare a compound source plate. Two compound source plates were made separately when a two-step assay was performed. In parallel, the cells were washed twice with the HBSS and maintained in 30 μl of the HBSS to prepare a cell assay plate. Both the cell assay plate and the compound source plate(s) were then incubated in the hotel of the reader system. After incubation the baseline wavelengths of all biosensors in the cell assay microplate were recorded and normalized to zero. Afterwards, a 2 to 10 min continuous recording was carried out to establish a baseline, and to ensure that the cells reached a steady state. Cellular responses were then triggered by transferring 10 μl of the compound solutions into the cell assay plate using the on-board liquid handler.
(§3) All studies were carried out at a controlled temperature (28° C.). At least two independent sets of experiments, each with at least three replicates, were performed.
(§4) The upstream signaling pathways linking to the purinosome is unknown at the present time. To identify cellular targets and pathways that are involved in regulating purinosome dynamics, a library of agonists for a great number of G protein-coupled receptors and membrane bound receptor tyrosine kinases was made in house, and each agonist was used to stimulate a confluent layer of Hela cells, cultured using high initial seeding number (25k per well for 384 well Epic® cell culture compatible biosensor microplates) in purine rich medium (i.e., regular 10% FCS or FBS). The concentrations for all small organic molecules were 10 micromolar, whereas 1 micromolar for all small peptides, and 100 nanomolar for all protein factors (molecular weight >15k Da). The cellular responses to each agonist were recorded for about 1 hour, and used to determine the functional expression of their corresponding cognate receptor(s).
To examine the receptor whose signaling is involved in regulating the purinosome dynamics, Hela cells were pretreated individually with each agonist for about one hour, followed by sequential stimulation with DMAT (20 micromolar) and TBB (25 micromolar), each step about 1 hour.

Assay [2] relates to HeLa cells. The experiment in a line: Purinosome dynamics DMR screen, sequential order molecule, TBB, DMAT. The note with it: agonist library; order agonist, TBB, DMAT; FIG. 4.
Text: A library of agonists for various different GPCRs were used to individually pretreat a confluent layer of Hela cells for about one hour, before sequential stimulation with TBB and DMAT, respectively. The responses were monitored using Epic® system.
(A) The dose-dependent DMR signals of Hela cells induced by alpha2A agonist clonidine. (B) The TBB DMR signal of Hela cells after pretreated with clonidine at different doses. (C) The dose-dependent DMR signals of pertussis toxin (PTX)-pretreated Hela cells induced by alpha2A agonist clonidine. (D) The TBB DMR signal of the PTX-pretreated Hela cells after stimulated with clonidine at different doses. The TBB concentration was 20 μM in both (C) and (D). The clonidine pretreatment occurred about one-hour before the TBB stimulation.
as §1, §2, §3, §4

For assay [3], the system named is HeLa cells. The assay is described as follows: Epic label-free biosensor DMR assay of compound-induced signals in HeLa cells. The note with it: for effect of pretreatment on the sequential DMAT response / effect of pretreatment on the sequential TBB response: HeLa cells pretreated with the compound about 1 hr; for effect of pretreatment on the sequential DMAT response: then DMAT; for effect of pretreatment on the sequential TBB response: then TBB; for DMR signal induced by CK2 inhibitor: HeLa cells, regular serum medium, high initial seeding number.
Text: HeLa cells were obtained from American Type Cell Culture (Manassas, Va.). This cervical cancer cell line was maintained in regular serum medium (i.e., minimum essential medium (MEM) (Invitrogen) supplemented with 10% fetal bovine serum (FBS) and 1% Penicillin/streptomycin). To investigate the effects of purine depletion on the purinosome formation and dissociation, HeLa cells were maintained for at least two passages in “purine-depleted medium” prior cell assays. The purine depleted medium is a medium consisting of Roswell Park Memorial Institute 1640 (RPMI 1640) supplemented with dialyzed 5% FBS […]. FBS was dialyzed against 0.9% NaCl at 4° C. for ˜2 days using a 25 kDa MWCO dialysis membrane to remove purines. This process completely removes the purines normally present in FBS.
Cells were typically grown using ˜1 to 2×10^4 cells per well at passage 3 to 15 suspended in 50 μl of the corresponding culture medium in the biosensor microplate, and were cultured at 37° C. under air/5% CO2 for ˜1 day. The confluency for all cells at the time of assays was ˜100%.
as §1
The RWG biosensor is capable of detecting minute changes in local index of refraction near the sensor surface. Since the local index of refraction within a cell is a function of density and its distribution of biomass (e.g., proteins, molecular complexes), the biosensor exploits its evanescent wave to non-invasively detect ligand-induced dynamic mass redistribution in native cells. The evanescent wave extends into the cells and exponentially decays over distance, leading to a characteristic sensing volume of ˜150 nm, implying that any optical response mediated through the receptor activation only represents an average over the portion of the cell that the evanescent wave is sampling. The aggregation of many cellular events downstream the receptor activation determines the kinetics and amplitudes of a ligand-induced DMR.
as §2, §3

For `Nc1ncnc2c1ncn2[C@@H]1O[C@H](COP(=O)(O)OP(=O)(O)OP(=O)(O)O)[C@@H](O)[C@H]1O` [ATP], in the assay with HeLa cells [1], the “modulation of the DMAT DMR signal” value is “selectively suppress”. In addition, the “modulation of the TBB DMR signal” value in the assay with HeLa cells [2] is “selectively potentiate”.
Regarding `O=C(O)c1cc([N+](=O)[O-])ccc1NCCCc1ccccc1` [NPPB], in the assay on HeLa cells [1], the “modulation of the DMAT DMR signal” value is given as “potentiate” and the “modulation of the TBB DMR signal” value is reported as “no or little impact”.
`NCCc1ccc(O)c(O)c1` [dopamine]: in the assay with HeLa cells [1], the “modulation of the DMAT DMR signal” value is given as “suppress”, the “modulation of the TBB DMR signal” value was “potentiate”, the “modulation of the DMAT signal” value is given as “suppress” and the “modulation of the TBB signal” value was “potentiate”. In the assay on HeLa cells [2], the “modulation of the TBB DMR signal” value was “selectively potentiate”.
Regarding `CCCCC[C@H](O)/C=C/[C@H]1[C@H](O)CC(=O)[C@@H]1C/C=C\CCCC(=O)O` [PGE2, peostaglandin E2], the “modulation of the DMAT DMR signal” value with HeLa cells [1] is reported as “potentiate”. In addition, the “modulation of the TBB DMR signal” value is “no or little impact” with HeLa cells [1] and “selectively suppress” with HeLa cells [2].
As for `O=C(O)/C=C/c1cc(Br)c(Br)c(Br)c1Br` [TBCA, Tetrabromocinnamic Acid], in the assay on HeLa cells [3], the “type of CK2 inhibitor by label-free biosensor cellular assay” value is “purinosome promoting agent”, the “effect of pretreatment on the sequential DMAT response” value is “desensitized”, the “effect of pretreatment on the sequential TBB response” value was “slightly potentiated” and the “DMR signal induced by CK2 inhibitor” value is recorded as “DMR signals similar to the DMAT response”.
With `CNCCCC12CCC(c3ccccc31)c1ccccc12` [maprotiline], in the assay with HeLa cells [1], the “modulation of the DMAT signal” value was “potentiate” and the “modulation of the TBB signal” value is reported as “suppress”.
As for `CC(C)NCC(O)c1ccc(O)c(O)c1` (stereo not shown) [isoproterenol], the “modulation of the DMAT signal” value in the assay with HeLa cells [1] is recorded as “specifically suppress”.
`C1COC(NC(C2CC2)C2CC2)=N1` [rilmenidine]: in the assay on HeLa cells [1], the “modulation of the DMAT signal” value is on record as “suppress” and the “modulation of the TBB signal” value is “potentiate”.
Turning to `CNC[C@H](O)c1cccc(O)c1` [phenylephrine, (R)-(−)-phenylephrine], in the assay with HeLa cells [1], the “modulation of the DMAT DMR signal” value is given as “suppress”, the “modulation of the TBB DMR signal” value was “potentiate”, the “modulation of the DMAT signal” value is given as “suppress” and the “modulation of the TBB signal” value was “potentiate”. In addition, in the assay on HeLa cells [2], the “modulation of the TBB DMR signal” value is recorded as “selectively potentiate”.
Consider `CCC(NC(C)C)C(O)c1ccc(O)c(O)c1` (stereo not shown) [isoetharine], for which, in the assay with HeLa cells [1], the “modulation of the DMAT signal” value is “specifically suppress”.
Consider lysophosphatidic Acid [LPA], for which, in the assay on HeLa cells [1], the “modulation of the DMAT DMR signal” value is reported as “selectively suppress”. For the same compound, in the assay on HeLa cells [2], the “modulation of the TBB DMR signal” value was “selectively potentiate”.
Turning to `CC(N)C(O)c1ccc(O)c(O)c1` (stereo not shown) [methylnorephrine], in the assay with HeLa cells [1], the “modulation of the DMAT signal” value is on record as “suppress” and the “modulation of the TBB signal” value is “potentiate”.
In the case of `Clc1ccc2nsnc2c1NC1=NCCN1` [tizanidine], in the assay with HeLa cells [1], the “modulation of the DMAT signal” value is listed as “suppress” and the “modulation of the TBB signal” value is “potentiate”.
As to `CC(C)(Cc1c[nH]c2ccc(Cl)cc12)NCCOc1ccccc1OCC1CC1` [RS17053], in the assay on HeLa cells [1], the “modulation of the DMAT signal” value was “potentiate” and the “modulation of the TBB signal” value was “suppress”.
Regarding `Brc1c(Br)c(Br)c2[nH]cnc2c1Br` [TBBz, 4,5,6,7-tetrabromobenzimidazole], the “type of CK2 inhibitor by label-free biosensor cellular assay” value in the assay with HeLa cells [3] is reported as “purinosome disruption agent”.
“EGF: epidermal growth factor, the EGFR agonist (NSDSECPLSHDGYCLHDGVCMYIEALDKYACNCVVGYIGERCQYRDLKWWELR; not fully specified; Epidermal growth factor; UniProt P01133 971-1023, looked up)”: the “modulation of the DMAT DMR signal” value in the assay on HeLa cells [2] is reported as “selectively suppress”.
Regarding “IGF1: insulin-like growth factor 1, the IGF1R agonist”, the “modulation of the TBB DMR signal” value with HeLa cells [2] is on record as “selectively potentiate”.
As for `c1ccc2c(CC3=NCCN3)cccc2c1` [naphazoline], in the assay with HeLa cells [1], the “modulation of the DMAT signal” value is “suppress” and the “modulation of the TBB signal” value is “potentiate”.
On to “HGF: hepatocyte growth factor, the HGFR agonist”, for which, in the assay with HeLa cells [2], the “modulation of the TBB DMR signal” value is “selectively potentiate”.
Consider `N=C(N)NC(=O)Cc1c(Cl)cccc1Cl` [gufacine], for which, in the assay on HeLa cells [1], the “modulation of the DMAT signal” value is listed as “suppress” and the “modulation of the TBB signal” value is reported as “potentiate”.
In the case of `N=C(CC(O)COc1ccccc1-c1ccccc1)N1CCCCC1` (stereo not shown) [AH11110A], in the assay on HeLa cells [1], the “modulation of the DMAT signal” value is “potentiate” and the “modulation of the TBB signal” value is on record as “suppress”.
Consider `N=C(N)N/N=C/c1c(Cl)cccc1Cl` [guanabenz], for which, in the assay on HeLa cells [1], the “modulation of the DMAT signal” value is on record as “suppress” and the “modulation of the TBB signal” value is given as “potentiate”.
For `CC(C(O)c1ccc(O)cc1)N1CCC(Cc2ccccc2)CC1` (stereo not shown) [ifenprodil], in the assay on HeLa cells [1], the “modulation of the DMAT signal” value is on record as “potentiate” and the “modulation of the TBB signal” value is listed as “suppress”.
`CC(CCc1ccc(O)cc1)NCCc1ccc(O)c(O)c1` (stereo not shown) [dobutamine]: the “modulation of the DMAT signal” value in the assay with HeLa cells [1] was “specifically suppress”.
For the compound `Clc1ccc2c(c1)C(N1CCNCC1)=Nc1ccccc1O2` [amoxapine], in the assay with HeLa cells [1], the “modulation of the DMAT signal” value is given as “potentiate” and the “modulation of the TBB signal” value is listed as “suppress”.
Turning to `Cc1cccc(C)c1N=C1NCCCS1` [xylazine], in the assay with HeLa cells [1], the “modulation of the DMAT signal” value is given as “suppress” and the “modulation of the TBB signal” value is “potentiate”.
With `OC[C@H]1O[C@@H](n2cnc3cc(Cl)c(Cl)cc32)[C@H](O)[C@@H]1O` [DRB, 5,6-Dichlorobenzimidazole 1-β-D-ribofuranoside], in the assay on HeLa cells [3], the “effect of pretreatment on the sequential DMAT response” value is “desensitized”, the “effect of pretreatment on the sequential TBB response” value is on record as “slightly potentiated” and the “DMR signal induced by CK2 inhibitor” value is “DMR signals similar to the DMAT response”.
For the compound `c1ccc2c(c1)[I+]c1ccccc1-2` [diphylpheneiodonium], in the assay with HeLa cells [1], the “modulation of the DMAT signal” value is “potentiate” and the “modulation of the TBB signal” value is recorded as “suppress”.
`Brc1c(NC2=NCCN2)ccc2nccnc12` [UK14304]: in the assay on HeLa cells [1], the “modulation of the DMAT signal” value is recorded as “suppress” and the “modulation of the TBB signal” value is on record as “potentiate”.
The like results for `NC[C@H](O)c1ccc(O)c(O)c1` [norepinephrine] were, in that order, “suppress” and “potentiate”.
For `O=c1cc(-c2ccc(O)cc2)oc2cc(O)cc(O)c12` [apigenin], the “DMR signal induced by CK2 inhibitor” value in the assay on HeLa cells [3] is “DMR signals similar to the DMAT response”.
